Experimental data as given in US5670546A, “N-Arylalkylphenylacetamide derivatives” (Korean Research Institute of Chemical Technology, priority 1995, dated 1997).

Legend:
KTC-ICR mice [1] = assay: phenyl-1,4-benzoquinone (PBQ) induced writhing test (analgesic effect); type: in vivo; conditions: Mus musculus, ip, read-out: ED50 PBQ
Experimental: (§1) Physiological activities of the compounds obtained in Examples 1 to 11 were measured by employing acetic acid or phenyl-1,4-benzoquinone(PBQ) induced writhing test.
(§2) The KTC-ICR mice provided by Experimental Animal Laboratory of Korea Research Institute of Chemical Technology were used as test animals. […] They were tested in a group consisting of 8 mice for each dosage of a test compound after having been adjusted to the testing environment for a week. Food and water were given freely; and illumination was maintained on a 12-hour cycle.
(§3) Test solutions were prepared by dissolving one of the final products obtained in Examples 1 to 11 in distilled water containing 1% of Tween and 5% ethanol in a pre-determined concentration. The test solutions were used after serial dilution depending on each dosage.
(§4) The test solutions were intraperitoneally administered in a dose of 0.1 ml per 10 g of a body weight. 0.1 ml of 1% acetic acid solution or 0.1 ml of 0.02% PBQ solution was administered after 60 minutes in case of oral administration or after 30 minutes in case of subcutaneous injection.
(§5) Then, the number of writhings generated during a period of 10 minutes after 3 minutes from the administration of acetic acid was measured. In case of the administration of PBQ, the number of writhings generated during a period of 5 minutes after 5 minutes from the administration was measured.
(§6) For a comparison purpose, initially, distilled water containing 1% of Tween and 5% ethanol alone was administered to the control group. Then, the control groups were subjected the same procedure as the test groups.
(§7) The number of writhings suffered by the test group was compared with that of the control group; and the analgesic effect was measured in terms of the percentage of inhibition of writhing(I. W.). [formula] wherein: A is the number of writhings suffered by the control group; and
(§8) B is the number of writhings suffered by the test group.
(§9) I.W. values for each dosage were calculated by employing regression analysis. The amount of a test compound which is required in reducing the frequency of writhings to the 50% level of that generated by the control group, i.e., B=0.5A or I.W.=50%, is designated as ED50 (mg/kg of a body weight). Therefore, a lower value of ED50 represents a higher analgesic effect of the tested compound.

KTC-ICR mice [2] = assay: acetic acid induced writhing test (analgesic effect); type: in vivo; conditions: for ED50: Mus musculus, ip, read-out: ED50 acetic acid
Experimental: as §1, §2, §3, §4, §5, §6, §7, §8, §9

test animals = assay: toxicity test: behavioral changes in the test animals observed by the naked eye; type: in vivo, KTC-ICR mice; design: key to Convulsion / Salivation / Urination: score; normal value 0, higher number = greater side effects; conditions: score; for Convulsion / Salivation / Urination: normal value 0; for Dyspnoea / Ptosis / Sedation / Vasodilation: normal value 4
Experimental: In order to monitor a harmful side-effect or toxicity of the present compounds, various behavioral changes in the test animals were observed. After the test and the control solutions were administered to the animals, symptoms such as sedation, ptosis, dyspnoea, vasodilation, convulsion, salivation and urination were observed by the naked eye and the level of such changes was represented by a numbering system: that is, the normal value of the last three behaviors(i.e., urination, convulsion and salivation) is 0; and that of the others(i.e., sedation, ptosis, dyspnoea and vasodilation) is 4. The higher the number is, the greater the side effects are.

[3] = acetic acid induced writhing, 50% reduction of writhings vs control group, mice 20 to 25 g
[4] = PBQ induced writhing, 50% reduction of writhings vs control group, mice 14 to 18 g

CC(=O)Oc1ccccc1C(=O)O [Aspirin]
ED50 (KTC-ICR mice [1]): 71.4 mg/kg

COc1cc(CNC(=O)CCCC/C=C/C(C)C)ccc1O [Capsaicin, Nvanillyl-trans-8-methyl-6-nonenamide, reference compound]
ED50 (KTC-ICR mice [2]): 1.34 mg/kg

COc1cc(CC(=O)NCCCc2ccc(C)c(C)c2)ccc1OCCN [Control, reference compound]
Convulsion (test animals; Amount 0.2 mgg): 1 | Salivation (test animals; Amount 0.2 mgg): 0 | Urination (test animals; Amount 0.2 mgg): 0 | Dyspnoea (test animals; Amount 0.2 mgg): 4 | Ptosis (test animals; Amount 0.2 mgg): 4 | Sedation (test animals; Amount 0.2 mgg): 4 | Vasodilation (test animals; Amount 0.2 mgg): 4 | Convulsion (test animals; Amount 0.25 mgg): 1 | Salivation (test animals; Amount 0.25 mgg): 0 | Urination (test animals; Amount 0.25 mgg): 0 | Dyspnoea (test animals; Amount 0.25 mgg): 5 | Ptosis (test animals; Amount 0.25 mgg): 6 | Sedation (test animals; Amount 0.25 mgg): 6 | Vasodilation (test animals; Amount 0.25 mgg): 5 | Convulsion (test animals; Amount 0.5 mgg): 1 | Salivation (test animals; Amount 0.5 mgg): 0 | Urination (test animals; Amount 0.5 mgg): 0 | Dyspnoea (test animals; Amount 0.5 mgg): 6 | Ptosis (test animals; Amount 0.5 mgg): 7 | Sedation (test animals; Amount 0.5 mgg): 7 | Vasodilation (test animals; Amount 0.5 mgg): 5 | Convulsion (test animals; Amount 1 mgg): 1 | Salivation (test animals; Amount 1 mgg): 0 | Urination (test animals; Amount 1 mgg): 0 | Dyspnoea (test animals; Amount 1 mgg): 6 | Ptosis (test animals; Amount 1 mgg): 7 | Sedation (test animals; Amount 1 mgg): 7 | Vasodilation (test animals; Amount 1 mgg): 6

COc1cc(CC(=O)NCCCc2ccc(C)c(C)c2)ccc1OCCO [Example 1, N-{3-(3,4-dimethylphenyl)propyl}-4-(2-hydroxyethoxy)-3-methoxyphenylacetamide]
ED50 (KTC-ICR mice [2]; [3]): 2.01 mg/kg | Convulsion (test animals; Amount 1 mgg): 0 | Salivation (test animals; Amount 1 mgg): 0 | Urination (test animals; Amount 1 mgg): 0 | Dyspnoea (test animals; Amount 1 mgg): 4 | Ptosis (test animals; Amount 1 mgg): 4 | Sedation (test animals; Amount 1 mgg): 4 | Vasodilation (test animals; Amount 1 mgg): 4 | Convulsion (test animals; Amount 2 mgg): 0 | Salivation (test animals; Amount 2 mgg): 0 | Urination (test animals; Amount 2 mgg): 0 | Dyspnoea (test animals; Amount 2 mgg): 4 | Ptosis (test animals; Amount 2 mgg): 4 | Sedation (test animals; Amount 2 mgg): 4 | Vasodilation (test animals; Amount 2 mgg): 4 | Convulsion (test animals; Amount 4 mgg): 0 | Salivation (test animals; Amount 4 mgg): 0 | Urination (test animals; Amount 4 mgg): 0 | Dyspnoea (test animals; Amount 4 mgg): 5 | Ptosis (test animals; Amount 4 mgg): 5 | Sedation (test animals; Amount 4 mgg): 6 | Vasodilation (test animals; Amount 4 mgg): 5

COc1cc(CC(=O)NCCCc2ccc(C)c(C)c2)ccc1OCCNCCO [Example 2, N-{3-(3,4-dimethylphenyl)propyl}-4-[2-{N-(2-hydroxyethyl)}aminoethoxy]-3-methoxy phenylacetamide]
ED50 (KTC-ICR mice [2]; [3]): 0.3 mg/kg | ED50 (KTC-ICR mice [1]; [4]): 0.83 mg/kg | Convulsion (test animals; Amount 0.25 mgg): 0 | Salivation (test animals; Amount 0.25 mgg): 0 | Urination (test animals; Amount 0.25 mgg): 0 | Dyspnoea (test animals; Amount 0.25 mgg): 4 | Ptosis (test animals; Amount 0.25 mgg): 4 | Sedation (test animals; Amount 0.25 mgg): 4 | Vasodilation (test animals; Amount 0.25 mgg): 4 | Convulsion (test animals; Amount 0.5 mgg): 0 | Salivation (test animals; Amount 0.5 mgg): 0 | Urination (test animals; Amount 0.5 mgg): 0 | Dyspnoea (test animals; Amount 0.5 mgg): 4 | Ptosis (test animals; Amount 0.5 mgg): 5 | Sedation (test animals; Amount 0.5 mgg): 5 | Vasodilation (test animals; Amount 0.5 mgg): 4 | Convulsion (test animals; Amount 1 mgg): 0 | Salivation (test animals; Amount 1 mgg): 0 | Urination (test animals; Amount 1 mgg): 0 | Dyspnoea (test animals; Amount 1 mgg): 5 | Ptosis (test animals; Amount 1 mgg): 6 | Sedation (test animals; Amount 1 mgg): 6 | Vasodilation (test animals; Amount 1 mgg): 5

COc1cc(CC(=O)NCCCc2ccc(C)c(C)c2)ccc1OCCN(CCO)CCO [Example 3, N-{3-(3,4-dimethylphenyl)propyl}-4-[2-{N,N-di(2-hydroxyethyl)}aminoethoxy]-3-methoxyphenylacetamide]
ED50 (KTC-ICR mice [2]; [3]): 1.41 mg/kg | Convulsion (test animals; Amount 1.25 mgg): 0 | Salivation (test animals; Amount 1.25 mgg): 0 | Urination (test animals; Amount 1.25 mgg): 0 | Dyspnoea (test animals; Amount 1.25 mgg): 4 | Ptosis (test animals; Amount 1.25 mgg): 4 | Sedation (test animals; Amount 1.25 mgg): 4 | Vasodilation (test animals; Amount 1.25 mgg): 4 | Convulsion (test animals; Amount 2.5 mgg): 0 | Salivation (test animals; Amount 2.5 mgg): 0 | Urination (test animals; Amount 2.5 mgg): 0 | Dyspnoea (test animals; Amount 2.5 mgg): 4 | Ptosis (test animals; Amount 2.5 mgg): 5 | Sedation (test animals; Amount 2.5 mgg): 5 | Vasodilation (test animals; Amount 2.5 mgg): 4 | Convulsion (test animals; Amount 5 mgg): 0 | Salivation (test animals; Amount 5 mgg): 0 | Urination (test animals; Amount 5 mgg): 0 | Dyspnoea (test animals; Amount 5 mgg): 6 | Ptosis (test animals; Amount 5 mgg): 7 | Sedation (test animals; Amount 5 mgg): 6 | Vasodilation (test animals; Amount 5 mgg): 5

COc1cc(CC(=O)NCCCc2ccc(C)c(C)c2)ccc1OCCNCCN [Example 4, N-{3-(3,4-dimethylphenyl)propyl}-4-[2-{N-(2-aminoethyl)}aminoethoxy]-3-methoxyphenylacetamide]
ED50 (KTC-ICR mice [2]; [3]): 1.78 mg/kg

COc1cc(CC(=O)NCCCc2ccc(C)c(C)c2)ccc1OCCN1CCNCC1 [Example 5, N-{3-(3,4-dimethylphenyl)propyl}-4-(2-piperazinylethoxy)-3-methoxyphenylacetamide]
ED50 (KTC-ICR mice [2]; [3]): > 20 mg/kg | Convulsion (test animals; Amount 1 mgg): 0 | Salivation (test animals; Amount 1 mgg): 0 | Urination (test animals; Amount 1 mgg): 0 | Dyspnoea (test animals; Amount 1 mgg): 4 | Ptosis (test animals; Amount 1 mgg): 4 | Sedation (test animals; Amount 1 mgg): 4 | Vasodilation (test animals; Amount 1 mgg): 4 | Convulsion (test animals; Amount 2 mgg): 0 | Salivation (test animals; Amount 2 mgg): 0 | Urination (test animals; Amount 2 mgg): 0 | Dyspnoea (test animals; Amount 2 mgg): 4 | Ptosis (test animals; Amount 2 mgg): 4 | Sedation (test animals; Amount 2 mgg): 4 | Vasodilation (test animals; Amount 2 mgg): 4 | Convulsion (test animals; Amount 4 mgg): 0 | Salivation (test animals; Amount 4 mgg): 0 | Urination (test animals; Amount 4 mgg): 0 | Dyspnoea (test animals; Amount 4 mgg): 4 | Ptosis (test animals; Amount 4 mgg): 6 | Sedation (test animals; Amount 4 mgg): 6 | Vasodilation (test animals; Amount 4 mgg): 4

COc1cc(CC(=O)NCCCc2ccc(C)c(C)c2)ccc1OCCNC=O [Example 6]
ED50 (KTC-ICR mice [2]; [3]): 0.26 mg/kg

COc1cc(CC(=O)NCCCc2ccc(C)c(C)c2)ccc1OCCNC(=O)OCc1ccccc1 [Example 7, N-{3-(3,4-dimethylphenyl)propyl}-4-{2-(N-benzyloxycarbonyl)aminoethoxy}-3-methoxyphenylacetamide]
ED50 (KTC-ICR mice [2]; [3]): 1.51 mg/kg

CNCCOc1ccc(CC(=O)NCCCc2ccc(C)c(C)c2)cc1OC [Example 8, N-{3-(3,4-dimethylphenyl)propyl}-4-(2-methylaminoethoxy)-3-methoxyphenylacetamide]
ED50 (KTC-ICR mice [1]; [4]): 0.68 mg/kg

COc1cc(CC(=O)NCCCc2ccc(C)c(C)c2)ccc1OCCN1CCCC1 [Example 9, N-{3-(3,4-dimethylphenyl)propyl}-4-{2-(1-pyrrolidinyl)ethoxy}-3-methoxyphenylacetamide]
ED50 (KTC-ICR mice [2]; [3]): > 5 mg/kg

CCOC(=O)NCCOc1ccc(CC(=O)NCCCc2ccc(C)c(C)c2)cc1OC [Example 10, N-{3-(3,4-dimethylphenyl)propyl}-4-{2-(N-ethyloxycarbonyl)aminoethoxy}-3-methoxyphenylacetamide]
ED50 acetic acid (KTC-ICR mice [2]; [3]): > 10 mg/kg of a body weight

COc1cc(CC(=O)NCCCc2ccc(C)c(C)c2)ccc1OCCNC(=O)c1ccccc1OC(C)=O [Example 11, N-{3-(3,4-dimethylphenyl)propyl}-4-[2-{N-(2-acetoxybenzoyl)}aminoethoxy]-3-methoxyphenylacetamide]
ED50 (KTC-ICR mice [2]; [3]): 4.15 mg/kg

CC(C)Cc1ccc(C(C)C(=O)O)cc1 (stereo not drawn) [Ibuprofen]
ED50 (KTC-ICR mice [1]; [4]): 11 mg/kg

CCCCCCCC/C=C\CCCCCCCC(=O)NCc1ccc(O)c(OC)c1 [NE-19550, Nvanillyloleamide, reference compound]
ED50 (KTC-ICR mice [2]): 15.7 mg/kg

CCCCCCCC/C=C\CCCCCCCC(=O)NCc1ccc(OCCN)c(OC)c1 [NE-21610, N{4(2-aminoethoxy)-3-methoxybenzyl)-oleamide, reference compound]
ED50 (KTC-ICR mice [2]; [3]): > 300 mg/kg | ED50 (KTC-ICR mice [1]; [4]): 38.3 mg/kg

COc1ccc2cc([C@H](C)C(=O)O)ccc2c1 [Naproxen]
ED50 (KTC-ICR mice [1]; [4]): 17.1 mg/kg

CCCCC1C(=O)N(c2ccccc2)N(c2ccccc2)C1=O [Phenylbutazone]
ED50 (KTC-ICR mice [1]; [4]): 79.8 mg/kg
